In the supplement of paper PMC11208160:

Assay: recombinant barcode read abundance after kanamycin selection (control-corrected) (log10(CPM+1)); higher = more efficient recombination; sequences stand for … in AGTGCAGAGAAAATCGGCCAGTTTTCTCTGCCTGCAGTCCGCATGCCGT…AGATTTATGCAGCGGACTGCCTTTCTCCCAAAGTGATAAACCGGACAGTATCATGGACCGGTTTTCCCGGTAATCCGTATTTGCAAGGTTGGTTTCACT; site = the 11-nt target
Procedure, shortened: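 In E. coli, a pooled library matched targets to IS621 bridge RNA target-binding loops and was introduced alongside a donor plasmid. Cells went onto chloramphenicol/ampicillin/kanamycin with 0.1 mM IPTG or onto chloramphenicol/ampicillin LB agar as control, in duplicate. Recombination efficiency, from recombinant-junction barcodes as counts per million, is averaged and control-corrected. It is reported as log10(CPM+1).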
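Note: IS621 recombinase and bridge RNA in Escherichia coli cells.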

Row | Sequence | recombinant barcode read abundance (log10)
1 | CTAATTCCTTGGGTTCTAACCTGTTGCAT (site CTAAGTCCTAT) | 0.0341
2 | CTAATTCCTTGGGTTCTAACCTGTTGCAT (site CTAATTCCTAT) | 0.252
3 | CTACACTCTTGGGTTCTAACCTGTTGCCT (site CAACACTCTAG) | 1.07
4 | CTACACTCTTGGGTTCTAACCTGTTGCCT (site CCACACTCTAG) | 0.409
5 | CTACACTCTTGGGTTCTAACCTGTTGCCT (site CGACACTCTAG) | 0.28
6 | CTACACTCTTGGGTTCTAACCTGTTGCCT (site CTACACTCTAG) | 2.18
7 | CTACAGCCTTGGGTTCTAACCTGTTGCTT (site CTACAACCTAA) | 0.636
8 | CTACAGCCTTGGGTTCTAACCTGTTGCTT (site CTACACCCTAA) | 0.0559
9 | CTACAGCCTTGGGTTCTAACCTGTTGCTT (site CTACAGCCTAA) | 0.798
10 | CTACAGCCTTGGGTTCTAACCTGTTGCTT (site CTACATCCTAA) | 0.0933
11 | CTACCAACTTGGGTTCTAACCTGTTGCCT (site CTACCAACTAG) | 0.41
12 | CTACCAACTTGGGTTCTAACCTGTTGCCT (site CTACCACCTAG) | 0.0179
13 | CTACCAACTTGGGTTCTAACCTGTTGCCT (site CTACCAGCTAG) | 0.124
14 | CTACCAACTTGGGTTCTAACCTGTTGCCT (site CTACCATCTAG) | 0.0148
15 | CTACCAGCTTGGGTTCTAACCTGTTGCCT (site CTACCAACTAG) | 0.191
16 | CTACCAGCTTGGGTTCTAACCTGTTGCCT (site CTACCACCTAG) | 0.0143
17 | CTACCAGCTTGGGTTCTAACCTGTTGCCT (site CTACCAGCTAG) | 1.17
18 | CTACCAGCTTGGGTTCTAACCTGTTGCCT (site CTACCATCTAG) | 0.0991

Row | Sequence | recombinant barcode read abundance (log10)
19 | CTACCATCTTGGGTTCTAACCTGTTGCCG (site CTACCATCTCG) | 0.255
20 | CTACCATCTTGGGTTCTAACCTGTTGCCG (site CTACCGTCTCC) | 0.157
21 | CTACCCTCTTGGGTTCTAACCTGTTGCAT (site CTAACCTCTAT) | 0.026
22 | CTACCCTCTTGGGTTCTAACCTGTTGCAT (site CTACCCTCTAT) | 2.87
23 | CTACCCTCTTGGGTTCTAACCTGTTGCAT (site CTAGCCTCTAT) | 0.0456
24 | CTACCCTCTTGGGTTCTAACCTGTTGCAT (site CTATCCTCTAT) | 0.413
25 | CTACCTTCTTGGGTTCTAACCTGTTGCCT (site CAACCTTCTAG) | 0.203
26 | CTACCTTCTTGGGTTCTAACCTGTTGCCT (site CTACCTTCTAG) | 1.37
27 | CTACGGACTTGGGTTCTAACCTGTTGCTG (site CTACGAACTCA) | 1.82
28 | CTACGGACTTGGGTTCTAACCTGTTGCTG (site CTACGCACTCA) | 0.206
29 | CTACGGACTTGGGTTCTAACCTGTTGCTG (site CTACGGACTCA) | 2.77
30 | CTACGGACTTGGGTTCTAACCTGTTGCTG (site CTACGTACTCA) | 0.0171
31 | CTACGTACTTGGGTTCTAACCTGTTGCCT (site ATACGTACTAG) | 0.00899
32 | CTACGTACTTGGGTTCTAACCTGTTGCCT (site CTACGTACTAG) | 1.3
33 | CTACGTACTTGGGTTCTAACCTGTTGCCT (site GTACGTACTAG) | 0.0661
34 | CTACGTACTTGGGTTCTAACCTGTTGCCT (site TTACGTACTAG) | 0.0415
35 | CTACGTACTTGGGTTCTAACCTGTTGCTG (site CTACGAACTCA) | 0.0136
36 | CTACGTACTTGGGTTCTAACCTGTTGCTG (site CTACGCACTCA) | 0.138
